Measurements published in US20140328771A1, “METHOD FOR PRODUCING 3-MENTHOXY PROPANOL AND COMPOSITIONS FOR IMPARTING COOLING SENSATION” (Takasago International Corporation, priority 2011, published 2014).

Experiment: Oral sensory evaluation of 50-ppm aqueous solutions by ten special panelists
Assay type: in vivo, human
Details: 50-ppm aqueous solution
Method: Using 3-1-menthoxy-1-propanol (1) obtained in Example 1, the mixture (2) of 3-1-menthoxy-1-propanol and 1-1-menthoxy-2-propanol at a weight ratio of 93:7 obtained in Example 2, and 1-1-menthoxy-2-propanol (3) obtained in Example 1, 50-ppm aqueous solutions were prepared.
The three 50-ppm aqueous solutions were subjected to oral sensory evaluation by ten special panelists with five or more years of experience.

Question: For `CC1CCC(C(C)C)C(OCCCO)C1` (centres unmarked) [(1), 3-1-menthoxy-1-propanol], which refreshing sensation (all the ten panelists) is on record?
Answer: marked refreshing sensation

Question: What about the “strength and persistence of refreshing sensation” value (seven of the ten panelists) of the same compound?
Answer: stronger and long-lasting refreshing sensation
